Test results as given in patent US6407217B1, “Imidazolinone haptens and antigens and enzyme conjugates prepared therefrom” (American Cyanamid Company, priority 1994, dated 2002).

Tests used:
Type in all cases: binding, mouse
[1] = target: monoclonal antibody 1D2.6; assay: Indirect competitive enzyme immunoassay, monoclonal antibody 1D2.6
Excerpt: (§1) An indirect enzyme immunoassay is used to screen for the production of anti-imidazolinone anti-bodies in the serum of the immunized mice and in cell fusion cultures. The method used is essentially the same as the method described by Voller, et al (Manual of Clinical Immunology, eds. N. Rose Friedman, H., pp. 506-512, 1976). For the indirect enzyme immunoassays, an antigen is adsorbed onto polystyrene flat bottom wells in 0.1M Na2CO3 buffer pH 9.6. Excess unbound material is washed away with buffer (PBS, containing 0.01M NaH2PO4—Na2HPO4 pH 7.6 with 0.05% TWEEN® 20 (a polyoxyethyene sorbitan monolaurate surpactantor Atlas chemical industries and 0.02% NaN3). A 0.05% gelatin solution prepared in PBS is used to block the sites unoccupied by the antigen to prevent non-specific binding of reagents. Antibody from serum or culture are added into the wells for binding to the bound antigen. The wells are washed and the amount of bound anitbody is determined by adding alkaline phosphatase-conjugated goat anti-mouse IgG (Boehringer) to the wells followed by the addition of a p-nitrophenyl phosphate solution for color development. The color intensity is determined spectrophotometrically and is used to determine the titers.
(§2) The bound antigen and imidazolinone compound compete for the antibody molecules. The wells are then washed and the color is developed as described above. In this assay, the color is inversely proportional to the amount of imidazolinone compound. In practice, standard curves are generated with known amounts of an imidazolinone compound and amounts present in test samples are calculated by interpolation.
(§3) Indirect competitive enzyme immunoassays for several imidazolinone compounds, using various monoclonal antibodies and antigens, are conducted according to the procedure described in Example 9. Antigens G and H are as described in Example 10 and Antigen I is shown below.

[2] = test system: monoclonal antibody 3A2.2; assay: Direct competitive enzyme immunoassay with MAb 3A2.2 and alkaline phosphatase enzyme conjugate; details: mean of triplicate
Excerpt: The monoclonal antibody 3A2.2 prepared in Example 10 and the enzyme conjugate prepared in Example 12 are used to establish a direct competitive enzyme immunoassay method for the determination of the concentration of imazapyr in samples. A constant amount of the monoclonal antibody 3A2.2 is adsorbed onto polystyrene plate wells through an affinity purified goat anti-mouse immunoglobulin which is previously adsorbed onto the polystyrene plate wells. The wells are washed with buffer (PBS, containing 0.01M NaH2PO4—Na2HPO4 pH 7.6 with 0.05% TWEEN® 20 (a polyoxyethylene sorbitan monolaurate surfactant of Atlas Chemical Industries and 0.02% NaN3) and blocked with a 0.05% gelatin solution prepared in PBS. Standard solutions having concentrations of imazapyr from 0 to 5,000 ng/mL are added to the blocked wells followed by the addition of the aforementioned enzyme conjugate.
After several minutes, the wells are washed and the color is developed by adding BRL alkaline phosphatase substrate amplification kit (commercially available from GIBCO BRL Life Technologies Inc., […], Md.). After several minutes, readings are taken for each well at 490 nm using a microwell reader.
A standard curve plot having the log of imazapyr concentration on the x-axis and the optical density reading at 490 nm (OD 490) on the Y-axis is used to determine unknown concentrations of imazapyr present in soil, water or plant samples from their OD 490 values.
The OD 490 readings for 6 imazapyr standard solutions and a solvent blank are obtained from a direct enzyme immunoassay experiment run in triplicate. The standard curve obtained by plotting the mean OD 490 reading versus the logarithm of the standard imazapyr concentration is used to determine unknown imazapyr concentrations from about 0.5 ng/mL to 500 ng/mL.

[3] = target: monoclonal antibody 3A2.2; assay: Indirect competitive enzyme immunoassay, monoclonal antibody 3A2.2
Excerpt: as §1, §2, §3

[4] = target: monoclonal antibody 1A5.5; assay: Indirect competitive enzyme immunoassay, monoclonal antibody 1A5.5; details: for I50 (half-maximal inhibition): MAb 1A5.5, coating antigen H
Excerpt: as §1, §2, §3

[5] = target: monoclonal antibody 3A5.1; assay: Indirect competitive enzyme immunoassay, monoclonal antibody 3A5.1
Excerpt: as §1, §2, §3

[6] = target: monoclonal antibody 2C6.5; assay: Indirect competitive enzyme immunoassay, monoclonal antibody 2C6.5
Excerpt: as §1, §2, §3

Compound	I50 (half-maximal inhibition) ([1]; MAb 1D2.6, coating antigen G)	I50 (half-maximal inhibition) ([1]; MAb 1D2.6, coating antigen I)	OD 490 Reading ([2]; imazapyr 0.05 ng/mL)	OD 490 Reading ([2]; imazapyr 0.50 ng/mL)	OD 490 Reading ([2]; imazapyr 5.0 ng/mL)	OD 490 Reading ([2]; imazapyr 50 ng/mL)	OD 490 Reading ([2]; imazapyr 500 ng/mL)	OD 490 Reading ([2]; imazapyr 5,000 ng/mL)	I50 (half-maximal inhibition) ([3]; MAb 3A2.2, coating antigen G)	I50 (half-maximal inhibition) ([3]; MAb 3A2.2, coating antigen I)	I50 (half-maximal inhibition) [4]	I50 (half-maximal inhibition) ([5]; MAb 3A5.1, coating antigen I)	I50 (half-maximal inhibition) ([5]; MAb 3A5.1, coating antigen G)	I50 (half-maximal inhibition) ([6]; MAb 2C6.5, coating antigen G)	I50 (half-maximal inhibition) ([6]; MAb 2C6.5, coating antigen I)	affinity compared to the other imidazolinone compounds ([1]; MAb 1D2.6)	affinity compared to the other imidazolinone compounds ([4]; MAb 1A5.5)
CC(C)C1(C)N=C(c2ncccc2C(=O)O)NC1=O (stereo not drawn) [Imazapyr, 2-(4-isopropyl-4-methyl-5-oxo-2-imidazolin-2-yl)nicotinic acid]	>10,000 ppb (ng/mL)	>1,000 ppb (ng/mL)	2.671	2.507	1.893	0.801	0.474	0.446	290 ppb (ng/mL)	331 ppb (ng/mL)	500 ppb (ng/mL)	>5,000 ppb (ng/mL)					
mixture of methyl 6-(4-isopropyl-4-methyl-5-oxo-2-imidazolin-2-yl)-m-toluate and methyl 2-(4-isopropyl-4-methyl-5-oxo-2-imidazolin-2-yl)-p-toluate [Imazamethabenz-methyl]	>10,000 ppb (ng/mL)	105 ppb (ng/mL)							322 ppb (ng/mL)	356 ppb (ng/mL)	500 ppb (ng/mL)	90 ppb (ng/mL)	400 ppb (ng/mL)				
CC(C)C1(C)N=C(c2nc3ccccc3cc2C(=O)O)NC1=O (stereo not drawn) [Imazaquin, 2-(4-isopropyl-4-methyl-5-oxo-2-imidazolin-2-yl)-3-quinolinecarboxylic acid]	>10,000 ppb (ng/mL)	2,000 ppb (ng/mL)							5 ppb (ng/mL)	3 ppb (ng/mL)	>1,000 ppb (ng/mL)	800 ppb (ng/mL)					
CCc1cnc(C2=NC(C)(C(C)C)C(=O)N2)c(C(=O)O)c1 (stereo not drawn) [Imazethapyr, 5-ethyl-2-(4-isopropyl-4-methyl-5-oxo-2-imidazolin-2-yl)nicotinic acid]	>10,000 ppb (ng/mL)	20 ppb (ng/mL)							34 ppb (ng/mL)	21 ppb (ng/mL)	60 ppb (ng/mL)	220 ppb (ng/mL)	>1,000 ppb (ng/mL)	13 ppb (ng/mL)	15 ppb (ng/mL)	greater affinity	greater affinity
Cc1cnc(C2=NC(C)(C(C)C)C(=O)N2)c(C(=O)O)c1 (stereo not drawn) [Imazamethapyr, 2-(4-isopropyl-4-methyl-5-oxo-2-imidazolin-2-yl)-5-methylnicotinic acid]	>10,000 ppb (ng/mL)	250 ppb (ng/mL)							31 ppb (ng/mL)	27 ppb (ng/mL)	100 ppb (ng/mL)	340 ppb (ng/mL)	>1,000 ppb (ng/mL)	171 ppb (ng/mL)	204 ppb (ng/mL)		
